# Test results reported in paper PMC9000871, “Rhodamine 101 Conjugates of Triterpenoic Amides Are of Comparable Cytotoxicity as Their Rhodamine B Analogs” (Molecules, 2022).
# Structures can show the parent of a compound that is named as a salt.
# Experiments:
# A375 (melanoma) = test: SRB cytotoxicity assay, A375; type: cell-based, human; conditions: Homo sapiens, A-375, 72 h, 72 h of treatment, mean ± standard mean error
# Source text: (§1) The cell lines were obtained from Department of Oncology (Martin-Luther-University Halle Wittenberg; they were bought from ATCC; A 375 (CRL-1619), HT29 (HTB-38), MCF7 (HTM-22), A2780 (HTP-77), FaDu (HTP-43), NIH 3T3 (CRL-1658), HEK-293 (CRL-1573)). Cultures were maintained as monolayers in RPMI 1640 medium with L-glutamine (Capricorn Scientific GmbH, Ebsdorfergrund, Germany) supplemented with 10% heat inactivated fetal bovine serum (Sigma-Aldrich Chemie GmbH, Steinheim, Germany) and penicillin/streptomycin (1%, Capricorn Scientific GmbH, Ebsdorfergrund, Germany) at 37 °C in a humidified atmosphere with 5% CO2. The cytotoxicity of the compounds was evaluated using the sulforhodamine-B (Kiton-Red S, ABCR) micro culture colorimetric assay using confluent cells in 96-well plates with the seeding of the cells on day 0 applying appropriate cell densities to prevent confluence of the cells during the period of the experiment. On day 1, the cells were treated with six different concentrations (1, 3, 7, 12, 20, and 30 μM); thereby, the final concentration of DMSO was always <0.5%, generally regarded as non-toxic to the cells. On day 4, the supernatant medium was discarded; the cells were fixed with 10% trichloroacetic acid. After another day at 4 °C, the cells were washed in a strip washer and dyed with the SRB solution (100 μL, 0.4% in 1% acetic acid) for about 20 min to be followed by washing of the plates (four times, 1% acetic acid) and air-drying overnight. Furthermore, tris base solution (200 μL, 10 mM) was added to each well and absorbance was measured at λ = 570 nm employing a reader (96 wells, Tecan Spectra, Crailsheim, Germany). The EC50 values were averaged from three independent experiments performed each in triplicate calculated from semi logarithmic dose response curves applying a non-linear four-parameter Hills-slope equation (GraphPad Prism5; variables top and bottom were set to 100 and 0, respectively).
# [1] = tested on: HT29 (colon adenocarcinoma); test: SRB cytotoxicity assay, HT29; type: cell-based, human; conditions: 72 h of treatment, mean ± standard mean error
# Source text: as §1
# [2] = tested on: MCF-7 (breast adenocarcinoma); test: SRB cytotoxicity assay, MCF-7; type: cell-based; conditions: Homo sapiens, MCF7, 72 h of treatment, mean ± standard mean error
# Source text: as §1
# [3] = tested on: A2780 (ovarian carcinoma); test: SRB cytotoxicity assay, A2780; type: cell-based; conditions: Homo sapiens, 72 h of treatment, mean ± standard mean error
# Source text: as §1
# [4] = tested on: NIH 3T3 (fibroblasts), non-malignant; test: SRB cytotoxicity assay, NIH 3T3; type: cell-based; conditions: Mus musculus, NIH3T3, 72 h, 72 h of treatment, mean ± standard mean error
# Source text: as §1
melting point,Structure (SMILES),EC50 (A375 (melanoma)),"EC50 ([1]; Homo sapiens, HT-29, 72 h)",EC50 [2],EC50 [3],EC50 [4],EC50 [1]
238 to 246 °C,"CCN(CC)c1ccc2c(-c3ccccc3C(=O)N3CCCN(C(=O)[C@]45CC[C@@H](C)[C@H](C)C4C4=CCC6[C@@]7(C)CC[C@H](OC(C)=O)C(C)(C)C7CC[C@@]6(C)[C@]4(C)CC5)CC3)c3ccc(=[N+](CC)CC)cc-3oc2c1 (stereo partly drawn) (as salt: chloride) (hydrate or solvate) [compound 19, 9-[2-[[4-(3β-Acetyloxy-28-oxo-urs-12-en-28-yl]-1-homopiperazinyl]carbonyl]phenyl]-3,6-bis(diethylamino)-xanthylium chloride]",–,–,–,–,–,–
> 300 °C,CC(=O)O[C@H]1CC[C@@]2(C)C(CC[C@]3(C)C2CC=C2C4CC(C)(C)CC[C@]4(C(=O)N4CCCN(C(=O)c5ccccc5C5=c6cc7c8c(c6Oc6c5cc5c9c6CCCN9CCC5)CCC[N+]=8CCC7)CC4)CC[C@]23C)C1(C)C (stereo partly drawn) (as salt: chloride) [compound 26],–,–,–,–,–,–
235 to 241 °C,"CCN(CC)c1ccc2c(-c3ccccc3C(=O)N3CCCN(C(=O)[C@]45CCC(C)(C)CC4C4=CCC6[C@@]7(C)CC[C@H](OC(C)=O)C(C)(C)C7CC[C@@]6(C)[C@]4(C)CC5)CC3)c3ccc(=[N+](CC)CC)cc-3oc2c1 (stereo partly drawn) (as salt: chloride) (hydrate or solvate) [compound 18, 9-[2-[[4-(3β-Acetyloxy-28-oxo-olean-12-en-28-yl]-1-homopiperazinyl]carbonyl]phenyl]-3,6-bis(diethylamino)-xanthylium chloride]",–,–,–,–,–,–
246 to 252 °C,"CCN(CC)c1ccc2c(-c3ccccc3C(=O)N3CCN(C(=O)[C@]45CCC(C)(C)CC4C4=CCC6[C@@]7(C)CC[C@H](OC(C)=O)C(C)(C)C7CC[C@@]6(C)[C@]4(C)CC5)CC3)c3ccc(=[N+](CC)CC)cc-3oc2c1 (stereo partly drawn) (as salt: chloride) [compound 14, 9-[2-[[4-(3β-Acetyloxy-28-oxo-olean-12-en-28-yl)-1-piperazinyl]carbonyl]phenyl]-3,6-bis(diethylamino)-xanthylium chloride]",–,–,–,–,–,–
172 to 175 °C,"CC(=O)O[C@H]1CC[C@@]2(C)C(CC[C@]3(C)C2CC=C2C4CC(C)(C)CC[C@]4(C(=O)N4CCNCC4)CC[C@]23C)C1(C)C (stereo partly drawn) [compound 6, 3β-Acetyloxy-28-(1-piperazinyl)-olean-12-en-28-one]",1400 ± 200 nM,1300 ± 100 nM,1700 ± 200 nM,1700 ± 100 nM,1700 ± 100 nM,–
171 to 175 °C,"CC(=O)O[C@H]1CC[C@@]2(C)C(CC[C@]3(C)C2CC=C2C4[C@@H](C)[C@H](C)CC[C@]4(C(=O)N4CCCNCC4)CC[C@]23C)C1(C)C (stereo partly drawn) [compound 11, 3β-Acetyloxy28-(1-homopierazinyl)-urs-12-en-28-one]",3200 ± 200 nM,2000 ± 100 nM,2400 ± 100 nM,2900 ± 240 nM,900 ± 100 nM,–
> 300 °C,CC(=O)O[C@H]1CC[C@@]2(C)C(CC[C@]3(C)C2CC=C2C4[C@@H](C)[C@H](C)CC[C@]4(C(=O)N4CCCN(C(=O)c5ccccc5C5=c6cc7c8c(c6Oc6c5cc5c9c6CCCN9CCC5)CCC[N+]=8CCC7)CC4)CC[C@]23C)C1(C)C (stereo partly drawn) (as salt: chloride) [compound 27],–,–,–,–,–,–
245 to 251 °C,"CCN(CC)c1ccc2c(-c3ccccc3C(=O)N3CCN(C(=O)[C@]45CC[C@@H](C)[C@H](C)C4C4=CCC6[C@@]7(C)CC[C@H](OC(C)=O)C(C)(C)C7CC[C@@]6(C)[C@]4(C)CC5)CC3)c3ccc(=[N+](CC)CC)cc-3oc2c1 (stereo partly drawn) (as salt: chloride) [compound 15, 9-[2-[[4-(3β-Acetyloxy-28-oxo-ursan-12-en-28-yl)-1-piperazinyl]carbonyl]phenyl]-3,6-bis(diethylamino)-xanthylium chloride]",–,–,–,–,–,–
–,"C=C(C)[C@@H]1CC[C@]2(C(=O)N3CCCN(C(=O)c4ccccc4-c4c5ccc(=[N+](CC)CC)cc-5oc5cc(N(CC)CC)ccc45)CC3)CC[C@]3(C)C(CCC4[C@@]5(C)CC[C@H](OC(C)=O)C(C)(C)C5CC[C@]43C)C12 (stereo partly drawn) [compound 17, 9-[2-[[4-(3β-Acetyloxy-28-oxo-30-norlupan-28-yl)-1-homopiperazinyl]carbonyl]phenyl]-3,6-bis(diethylamino)-xanthylium chloride]",760 ± 90 nM,280 ± 10 nM,220 ± 20 nM,220 ± 10 nM,330 ± 70 nM,–
–,"C=C(C)[C@@H]1CC[C@]2(C(=O)N3CCNCC3)CC[C@]3(C)C(CCC4[C@@]5(C)CC[C@H](OC(C)=O)C(C)(C)C5CC[C@]43C)C12 (stereo partly drawn) [compound 5, 3β-Acetyloxy-28-(1-piperazinyl)-lup-20(29)en-28-one]",1500 ± 300 nM,1000 ± 100 nM,1400 ± 100 nM,1900 ± 100 nM,900 ± 100 nM,–
–,"CCN(CC)c1ccc2c(-c3ccccc3C(=O)N3CCCN(C(=O)[C@]45CCC(C)(C)CC4C4=CCC6[C@@]7(C)CC[C@H](OC(C)=O)C(C)(C)C7CC[C@@]6(C)[C@]4(C)CC5)CC3)c3ccc(=[N+](CC)CC)cc-3oc2c1 (stereo partly drawn) [compound 18, 9-[2-[[4-(3β-Acetyloxy-28-oxo-olean-12-en-28-yl]-1-homopiperazinyl]carbonyl]phenyl]-3,6-bis(diethylamino)-xanthylium chloride]",40 ± 10 nM,40 ± 10 nM,30 ± 4 nM,20 ± 3 nM,140 ± 20 nM,–

Structure (SMILES),melting point,EC50 (A375 (melanoma)),"EC50 ([1]; Homo sapiens, HT-29, 72 h)",EC50 [2],EC50 [3],EC50 [4],EC50 [1]
CC(=O)O[C@H]1CC[C@@]2(C)C(CC[C@]3(C)C2CCC2C4[C@H](C(C)=O)CC[C@]4(C(=O)N4CCCN(C(=O)c5ccccc5C5=c6cc7c8c(c6Oc6c5cc5c9c6CCCN9CCC5)CCC[N+]=8CCC7)CC4)CC[C@]23C)C1(C)C (stereo partly drawn) (as salt: chloride) [compound 28],> 300 °C,–,–,–,–,–,–
"C=C(C)[C@@H]1CC[C@]2(C(=O)N3CCCN(C(=O)c4ccccc4-c4c5ccc(=[N+](CC)CC)cc-5oc5cc(N(CC)CC)ccc45)CC3)CC[C@]3(C)C(CCC4[C@@]5(C)CC[C@H](OC(C)=O)C(C)(C)C5CC[C@]43C)C12 (stereo partly drawn) (as salt: chloride) (hydrate or solvate) [compound 17, 9-[2-[[4-(3β-Acetyloxy-28-oxo-30-norlupan-28-yl)-1-homopiperazinyl]carbonyl]phenyl]-3,6-bis(diethylamino)-xanthylium chloride]",261 to 266 °C,–,–,–,–,–,–
"CCN(CC)c1ccc2c(-c3ccccc3C(=O)N3CCCN(C(=O)[C@]45CC[C@@H](C(C)=O)C4C4CCC6[C@@]7(C)CC[C@H](OC(C)=O)C(C)(C)C7CC[C@@]6(C)[C@]4(C)CC5)CC3)c3ccc(=[N+](CC)CC)cc-3oc2c1 (stereo partly drawn) (as salt: chloride) [compound 20, 9-[2-[[4-(3β-Acetyloxy-20,28-dioxo-30-norlupan-28-yl)-1-homopiperazinyl]carbonyl]phenyl]-3,6-bis(diethylamino)-xanthylium chloride]",248 to 250 °C (dec.),–,–,–,–,–,–
"CC(=O)O[C@H]1CC[C@@]2(C)C(CC[C@]3(C)C2CCC2C4[C@H](C(C)=O)CC[C@]4(C(=O)N4CCCNCC4)CC[C@]23C)C1(C)C (stereo partly drawn) [compound 12, 3β-Acetyloxy-28-(1-homopiperazinyl)-30-norlupane-20,28-dione]",162 to 165 °C,900 ± 100 nM,2300 ± 200 nM,1800 ± 200 nM,1600 ± 100 nM,600 ± 100 nM,–
"CC(=O)O[C@H]1CC[C@@]2(C)C(CC[C@]3(C)C2CCC2C4[C@H](C(C)=O)CC[C@]4(C(=O)N4CCNCC4)CC[C@]23C)C1(C)C (stereo partly drawn) [compound 8, 3β-Acetyloxy-28-(1-piperazinyl)-30-norlupane-20,28-dione]",127 to 130 °C,1900 ± 400 nM,3860 nM,2700 ± 300 nM,2600 ± 400 nM,1300 ± 100 nM,3900 ± 200 nM
"C=C(C)[C@@H]1CC[C@]2(C(=O)N3CCN(C(=O)c4ccccc4-c4c5ccc(=[N+](CC)CC)cc-5oc5cc(N(CC)CC)ccc45)CC3)CC[C@]3(C)C(CCC4[C@@]5(C)CC[C@H](OC(C)=O)C(C)(C)C5CC[C@]43C)C12 (stereo partly drawn) (as salt: chloride) [compound 13, 9-[2-[[4-(3β-Acetyloxy-28-oxo-lup-20(29)en-28-yl)-1-piperazinyl]carbonyl]phenyl]-3,6-bis(diethylamino)-xanthylium chloride]",247 to 252 °C,–,–,–,–,–,–
"CCN(CC)c1ccc2c(-c3ccccc3C(=O)N3CCN(C(=O)[C@]45CC[C@@H](C(C)=O)C4C4CCC6[C@@]7(C)CC[C@H](OC(C)=O)C(C)(C)C7CC[C@@]6(C)[C@]4(C)CC5)CC3)c3ccc(=[N+](CC)CC)cc-3oc2c1 (stereo partly drawn) (as salt: chloride) [compound 16, 9-[2-[[4-(3β-Acetyloxy-20,28-dioxo-30-norlupan-28-yl)-1-piperazinyl]carbonyl]phenyl]-3,6-bis(diethylamino)-xanthylium chloride]",247 to 254 °C,–,–,–,–,–,–
